Data as given in PubChem BioAssay AID194 (DTP/NCI, 2004).
“And” between values parts separate entries of the source, which are not always exact repeats. Identical values can stand only once. Records with an inconclusive call do not appear.

Tested on: BDF1 mice, B16 melanoma s.c., survival/tumor T/C
Assay: NCI In Vivo Anticancer Drug Screen. Data for tumor model B16 Melanoma (subcutaneous) in B6D2F1 (BDF1) mice
Experimental: The antitumor activity of compounds was measured in mice bearing transplantable tumors. Survival or tumor size were measured and the results are expressed as the measurement made in the treated group (T) divided by the measurement made in the vehicle treated control group (C). The tumor model used in this assay is B16 Melanoma (subcutaneous) in B6D2F1 (BDF1) mice

[1] = endpoint: median survival time, dose: 1.0 mg/kg/injection, schedule: Q01DX009 (ip), vehicle: saline, higher = longer survival
[2] = endpoint: median survival time, dose: 2.0 mg/kg/injection, schedule: Q01DX009 (ip), vehicle: saline, higher = longer survival
[3] = endpoint: median survival time, dose: 4.0 mg/kg/injection, schedule: Q01DX009 (ip), vehicle: saline, higher = longer survival
[4] = endpoint: median survival time, dose: 8.0 mg/kg/injection, schedule: Q01DX009 (ip), vehicle: saline, higher = longer survival
[5] = endpoint: median survival time, dose: 0.5 mg/kg/injection, schedule: Q01DX009 (ip), vehicle: saline, higher = longer survival
[6] = endpoint: median survival time, dose: 3.11 mg/kg/injection, schedule: Q01DX007 (ip), vehicle: Klucel (hydroxypropylcellulose) (HPC), higher = longer survival

Cc1c(N)nc([C@H](CC(N)=O)NC[C@H](N)C(N)=O)nc1C(=O)N[C@H](C(=O)N[C@H](C)[C@@H](O)CC(=O)N[C@H](C(=O)NC(O[C@@H]1O[C@@H](C)[C@@H](N)[C@@H](O)[C@H]1O)C(O)c1nc(-c2nc(C(=O)NCCCCN)cs2)cs1)[C@@H](C)O)[C@@H](O[C@@H]1O[C@@H](CO)[C@@H](O)[C@H](O)[C@@H]1O[C@H]1O[C@H](CO)[C@@H](O)[C@H](OC(N)=O)[C@@H]1O)c1c[nH]cn1 (stereo partly drawn)
T/C (endpoint: median survival time, dose: 0.12 mg/kg/injection, schedule: Q01DX009 (ip), vehicle: water, higher = longer survival): 109 % of control | T/C (endpoint: median survival time, dose: 0.25 mg/kg/injection, schedule: Q01DX009 (ip), vehicle: water, higher = longer survival): 89 % of control | T/C [1]: 180 % of control | T/C [2]: 180 % of control | T/C (endpoint: median survival time, dose: 2.0 mg/kg/injection, schedule: Q01DX009 (ip), vehicle: water, higher = longer survival): 91 % of control | T/C [3]: 180 % of control | T/C [4]: 206 % of control | T/C (endpoint: median survival time, dose: 12.0 mg/kg/injection, schedule: Q01DX009 (ip), vehicle: saline, higher = longer survival): 174 % of control | T/C (endpoint: median survival time, dose: 16.0 mg/kg/injection, schedule: Q01DX009 (ip), vehicle: saline, higher = longer survival): 180 % of control

CC1OC(=O)C(C(C)C)NC(=O)C(C(C)C)OC(=O)C(C(C)C)NC(=O)C(C)OC(=O)C(C(C)C)NC(=O)C(C(C)C)OC(=O)C(C(C)C)NC(=O)C(C)OC(=O)C(C(C)C)NC(=O)C(C(C)C)OC(=O)C(C(C)C)NC1=O (stereo not drawn)
T/C (endpoint: median survival time, dose: 3.4 mg/kg/injection, schedule: Q01DX009 (ip), vehicle: saline with Tween-80, higher = longer survival): 86 % of control | T/C (endpoint: median survival time, dose: 5.0 mg/kg/injection, schedule: Q01DX009 (ip), vehicle: saline with Tween-80, higher = longer survival): 86 % of control | T/C (endpoint: median survival time, dose: 7.5 mg/kg/injection, schedule: Q01DX009 (ip), vehicle: saline with Tween-80, higher = longer survival): 91 % of control | T/C (endpoint: median survival time, dose: 15.0 mg/kg/injection, schedule: Q04DX003 (ip), vehicle: saline with Tween-80, higher = longer survival): 86 % of control | T/C (endpoint: median survival time, dose: 20.0 mg/kg/injection, schedule: Q04DX003 (ip), vehicle: saline with Tween-80, higher = longer survival): 90 % of control | T/C (endpoint: median survival time, dose: 30.0 mg/kg/injection, schedule: Q01DX001 (ip), vehicle: saline with Tween-80, higher = longer survival): 86 % of control | T/C (endpoint: median survival time, dose: 30.0 mg/kg/injection, schedule: Q04DX003 (ip), vehicle: saline with Tween-80, higher = longer survival): 91 % of control | T/C (endpoint: median survival time, dose: 45.0 mg/kg/injection, schedule: Q01DX001 (ip), vehicle: saline with Tween-80, higher = longer survival): 97 % of control

CCC(=O)OCC(=O)[C@]1(O)Cc2c(O)c3c(c(O)c2[C@@H](OC2CC(N)C(O)C(C)O2)C1)C(=O)c1c(OC)cccc1C3=O (stereo partly drawn)
T/C (endpoint: median survival time, dose: 0.25 mg/kg/injection, schedule: Q01DX009 (ip), vehicle: saline, higher = longer survival): 90 % of control | T/C [5]: 118 % of control | T/C [1]: 102 % of control

COC(=O)[C@@]12OC[C@]34[C@H]([C@@H](O)[C@@H]1O)[C@@]1(C)CC(=O)C(O)=C(C)[C@@H]1C[C@H]3OC(=O)[C@H](OC(=O)/C=C(\C)C(C)C)[C@@H]24
T/C (endpoint: median survival time, dose: 0.25 mg/kg/injection, schedule: Q01DX009 (ip), vehicle: saline with Tween-80, higher = longer survival): 109 % of control | T/C (endpoint: median survival time, dose: 0.5 mg/kg/injection, schedule: Q01DX009 (ip), vehicle: saline with Tween-80, higher = longer survival): 96 % of control | T/C (endpoint: median survival time, dose: 1.0 mg/kg/injection, schedule: Q01DX009 (ip), vehicle: saline with Tween-80, higher = longer survival): 103 % of control | T/C (endpoint: median survival time, dose: 1.1 mg/kg/injection, schedule: Q01DX009 (ip), vehicle: saline with Tween-80, higher = longer survival): 121 % of control | T/C (endpoint: median survival time, dose: 1.3 mg/kg/injection, schedule: Q04DX003 (ip), vehicle: saline with Tween-80, higher = longer survival): 116 % of control | T/C (endpoint: median survival time, dose: 2.0 mg/kg/injection, schedule: Q01DX001 (ip), vehicle: saline with Tween-80, higher = longer survival): 103 % of control | T/C (endpoint: median survival time, dose: 2.0 mg/kg/injection, schedule: Q04DX003 (ip), vehicle: saline with Tween-80, higher = longer survival): 112 % of control

COC1C(C)OC(OC2CC(C)(O)Cc3cc4c(c(O)c32)C(=O)c2c(O)cc3c(c2C4=O)OC2OC3(C)C(O)C(N(C)C)C2O)C(OC)C1(C)OC (stereo not drawn)
T/C (endpoint: median survival time, dose: 2.5 mg/kg/injection, schedule: Q01DX009 (ip), vehicle: other, higher = longer survival): 90 % of control | T/C (endpoint: median survival time, dose: 625.0 micrograms/kg/injection, schedule: Q01DX009 (ip), vehicle: other, higher = longer survival): 113 % of control | T/C (endpoint: median survival time, dose: 1250.0 micrograms/kg/injection, schedule: Q01DX009 (ip), vehicle: other, higher = longer survival): 95 % of control | T/C (endpoint: median survival time, dose: 2500.0 micrograms/kg/injection, schedule: Q01DX009 (ip), vehicle: other, higher = longer survival): 122 % of control | T/C (endpoint: median survival time, dose: 5000.0 micrograms/kg/injection, schedule: Q01DX009 (ip), vehicle: other, higher = longer survival): 113 % of control

O=NN(CCCl)C(=O)NC1[C@H](O)CCC[C@@H]1O (stereo partly drawn)
T/C (endpoint: median survival time, dose: 1.56 mg/kg/injection, schedule: Q01DX007 (ip), vehicle: water, higher = longer survival): 95 % of control | T/C (endpoint: median survival time, dose: 2.59 mg/kg/injection, schedule: Q01DX007 (ip), vehicle: water, higher = longer survival): 108 % of control | T/C (endpoint: median survival time, dose: 4.32 mg/kg/injection, schedule: Q01DX007 (ip), vehicle: water, higher = longer survival): 114 % of control

C[C@@H]1CC[C@@]2(NC1)O[C@H]1C[C@H]3[C@@H]4CC=C5C[C@@H](O)CC[C@]5(C)[C@H]4CC[C@]3(C)[C@H]1[C@@H]2C
T/C (endpoint: median survival time, dose: 0.78 mg/kg/injection, schedule: Q01DX009 (ip), vehicle: Klucel (hydroxypropylcellulose) (HPC), higher = longer survival): 121 % of control | T/C (endpoint: median survival time, dose: 1.56 mg/kg/injection, schedule: Q01DX009 (ip), vehicle: Klucel (hydroxypropylcellulose) (HPC), higher = longer survival): 121 % of control | T/C (endpoint: median survival time, dose: 6.25 mg/kg/injection, schedule: Q01DX009 (ip), vehicle: Klucel (hydroxypropylcellulose) (HPC), higher = longer survival): 120 % of control

O=NN(CCF)C(=O)NC1CCC(=O)NC1=O (stereo not drawn)
T/C [6]: 121 % of control | T/C (endpoint: median survival time, dose: 5.18 mg/kg/injection, schedule: Q01DX007 (ip), vehicle: Klucel (hydroxypropylcellulose) (HPC), higher = longer survival): 124 % of control | T/C (endpoint: median survival time, dose: 8.64 mg/kg/injection, schedule: Q01DX007 (ip), vehicle: Klucel (hydroxypropylcellulose) (HPC), higher = longer survival): 164 % of control

O=NN(CCCl)C(=O)NCCCl
T/C [5]: 100 % of control | T/C [1]: 106 % of control | T/C (endpoint: median survival time, dose: 1.5 mg/kg/injection, schedule: Q02DX009 (ip), vehicle: saline + alcohol, higher = longer survival): 151 % of control | T/C [2]: 117 % of control | T/C [6]: 117 % of control | T/C [3]: 184 % of control | T/C [4]: 167 % of control | T/C (endpoint: median survival time, dose: 14.4 mg/kg/injection, schedule: Q01DX007 (ip), vehicle: Klucel (hydroxypropylcellulose) (HPC), higher = longer survival): 121 % of control

CC1CCC(NC(=O)N(CCCl)N=O)CC1 (stereo not drawn)
T/C (endpoint: median survival time, dose: 2.0 mg/kg/injection, schedule: Q02DX009 (ip), vehicle: Klucel (hydroxypropylcellulose) (HPC), higher = longer survival): 113 % of control | T/C (endpoint: median survival time, dose: 2.5 mg/kg/injection, schedule: Q04DX003 (ip), vehicle: other, higher = longer survival): 123 % of control | T/C (endpoint: median survival time, dose: 4.0 mg/kg/injection, schedule: Q01DX001 (ip), vehicle: saline with Tween-80, higher = longer survival): 87 % of control | T/C (endpoint: median survival time, dose: 5.0 mg/kg/injection, schedule: Q04DX003 (ip), vehicle: other, higher = longer survival): 104 % of control | T/C (endpoint: median survival time, dose: 8.0 mg/kg/injection, schedule: Q01DX001 (ip), vehicle: saline with Tween-80, higher = longer survival): 87 % of control and 120 % of control | T/C (endpoint: median survival time, dose: 8.0 mg/kg/injection, schedule: Q02DX009 (ip), vehicle: Klucel (hydroxypropylcellulose) (HPC), higher = longer survival): 189 % of control | T/C (endpoint: median survival time, dose: 8.0 mg/kg/injection, schedule: Q04DX003 (ip), vehicle: saline with Tween-80, higher = longer survival): 106 % of control | T/C (endpoint: median survival time, dose: 10.0 mg/kg/injection, schedule: Q01DX001 (ip), vehicle: other, higher = longer survival): 111 % of control | T/C (endpoint: median survival time, dose: 12.0 mg/kg/injection, schedule: Q04DX003 (ip), vehicle: saline with Tween-80, higher = longer survival): 101 % of control | T/C (endpoint: median survival time, dose: 16.0 mg/kg/injection, schedule: Q01DX001 (ip), vehicle: saline with Tween-80, higher = longer survival): 124 % of control | T/C (endpoint: median survival time, dose: 16.0 mg/kg/injection, schedule: Q02DX009 (ip), vehicle: Klucel (hydroxypropylcellulose) (HPC), higher = longer survival): 109 % of control | T/C (endpoint: median survival time, dose: 18.0 mg/kg/injection, schedule: Q01DX001 (ip), vehicle: saline with Tween-80, higher = longer survival): 120 % of control | T/C (endpoint: median survival time, dose: 18.0 mg/kg/injection, schedule: Q04DX003 (ip), vehicle: saline with Tween-80, higher = longer survival): 192 % of control | T/C (endpoint: median survival time, dose: 20.0 mg/kg/injection, schedule: Q01DX001 (ip), vehicle: other, higher = longer survival): 192 % of control | T/C (endpoint: median survival time, dose: 20.0 mg/kg/injection, schedule: Q04DX003 (ip), vehicle: other, higher = longer survival): 223 % of control and 256 % of control | T/C (endpoint: median survival time, dose: 32.0 mg/kg/injection, schedule: Q01DX001 (ip), vehicle: saline with Tween-80, higher = longer survival): 157 % of control | T/C (endpoint: median survival time, dose: 36.0 mg/kg/injection, schedule: Q01DX001 (ip), vehicle: saline with Tween-80, higher = longer survival): 213 % of control | T/C (endpoint: median tumor weight (est.), dose: 15.0 mg/kg/injection, schedule: Q01DX001 (ip), vehicle: Klucel (hydroxypropylcellulose) (HPC), higher = larger tumour): 50 % of control and 72 % of control | T/C (endpoint: median tumor weight (est.), dose: 30.0 mg/kg/injection, schedule: Q01DX001 (ip), vehicle: Klucel (hydroxypropylcellulose) (HPC), higher = larger tumour): 68 % of control | T/C (endpoint: median tumor weight (est.), dose: 60.0 mg/kg/injection, schedule: Q01DX001 (ip), vehicle: Klucel (hydroxypropylcellulose) (HPC), higher = larger tumour): 45 % of control

O=c1cnn(C2OC(CO)C(O)C2O)c(=O)[nH]1 (stereo not drawn)
T/C (endpoint: median survival time, dose: 75.0 mg/kg/injection, schedule: Q01DX009 (ip), vehicle: saline, higher = longer survival): 117 % of control | T/C (endpoint: median survival time, dose: 150.0 mg/kg/injection, schedule: Q01DX009 (ip), vehicle: saline, higher = longer survival): 104 % of control | T/C (endpoint: median survival time, dose: 300.0 mg/kg/injection, schedule: Q01DX009 (ip), vehicle: saline, higher = longer survival): 90 % of control | T/C (endpoint: median survival time, dose: 600.0 mg/kg/injection, schedule: Q01DX009 (ip), vehicle: saline, higher = longer survival): 101 % of control
